In the first assay the target is T1, recombinant His-tag Y220C p53 DBD protein (Homo sapiens, UniProt P04637, Y220C).
T1 construct: recombinant His-tag Y220C p53 DBD protein (amino acids #˜94-312)
As to the kind of experiment: In vitro DNA binding activity assay (TR-FRET): binding of His-tag Y220C p53 DBD to biotin-labeled consensus DNA. The format is biochemical. To be noted: SC150 = concentration to increase DNA binding by […], His-tag Y220C p53 DBD, biotin-labeled consensus DNA. For orientation: In TR-FRET formats the signal depends on donor and acceptor labels being close together.
With `CN1CCC(Nc2cccc3c2cc(-c2nnc(CNc4cn[nH]c4)s2)n3CC(F)(F)F)CC1` [Compound 82B, N-(1-methylpiperidin-4-yl)-2-(5-{[(1H-pyrazol-4-yl)amino]methyl}-1,3,4-thiadiazol-2-yl)-1-(2,2,2-trifluoroethyl)-1H-indol-4-amine], the “Y220C SC150 (μM)” value is listed as “** (** = 0.1 μM ≤ SC150 < 0.5 μM)”. On to `CN1CC[C@@H](Nc2cccc3c2cc(-c2noc(CNC(=O)c4cnn(-c5ccccc5)c4)n2)n3CC(F)(F)F)[C@@H](F)C1` [Compound 308B, N-{[3-(4-{1[(3S,4R)-3-fluoro-1-methylpiperidin-4-yl]amino}-1-(2,2,2-trifluoroethyl)-1H-indol-2-yl)-1,2,4-oxadiazol-5-yl]methyl}-1-phenyl-1H-pyrazole-4-carboxamide], for which the “Y220C SC150 (μM)” value was “* (* = 0 μM ≤ SC150 < 0.1 μM)”. `CN1CC[C@@H](Nc2cccc3c2cc(-c2noc(CNC(=O)c4csc(N(C)C)n4)n2)n3CC(F)(F)F)[C@@H](F)C1` [Compound 435B, 2-(dimethylamino)-N-{[3-(4-{[(3S,4R)-3-fluoro-1-methylpiperidin-4-yl]amino}-1-(2,2,2-trifluoroethyl)-1H-indol-2-yl)-1,2,4-oxadiazol-5-yl]methyl}-1,3-thiazole-4-carboxamide]: the “Y220C SC150 (μM)” value is given as “* (* = 0 μM ≤ SC150 < 0.1 μM)”. `COCC(C)n1ccc(C(=O)NCc2nc(-c3cc4c(N[C@@H]5CCN(C(C)(C)C)C[C@H]5F)cccc4n3CC(F)(F)F)no2)c1` (mixture of isomers) [Compound 358B, rac-N-{[3-(4-{1[(3R,4R)-1-tert-butyl-3-fluoropiperidin-4-yl]amino}-1-(2,2,2-trifluoroethyl)-1H-indol-2-yl)-1,2,4-oxadiazol-5-yl]methyl}-1-(1-methoxypropan-2-yl)-1H-pyrrole-3-carboxamide]: the “Y220C SC150 (μM)” value is on record as “* (* = 0 μM ≤ SC150 < 0.1 μM)”. For the compound `CN1CC[C@@H](Nc2cccc3c2cc(-c2noc(CNC(=O)c4ccn(CC(F)F)c4)n2)n3CC(F)(F)F)[C@@H](F)C1` [Compound 250B, 1-(2,2-difluoroethyl)-N-{[3-(4-{[(3S,4R)-3-fluoro-1-methylpiperidin-4-yl]amino}-1-(2,2,2-trifluoroethyl)-1H-indol-2-yl)-1,2,4-oxadiazol-5-yl]methyl}-1H-pyrrole-3-carboxamide], the “Y220C SC150 (μM)” value is on record as “* (* = 0 μM ≤ SC150 < 0.1 μM)”. In the case of `COc1cc(S(C)(=O)=O)ccc1NCc1cnc(-c2cc3c(N[C@@H]4CCN(C)C[C@@H]4F)cccc3n2CC(F)(F)F)s1` [Compound 99B, N-[(3S,4R)-3-fluoro-1-methylpiperidin-4-yl]-2-(5-{[(4-methanesulfonyl-2-methoxyphenyl)amino]methyl}-1,3-thiazol-2-yl)-1-(2,2,2-trifluoroethyl)-1H-indol-4-amine], the “Y220C SC150 (μM)” value is recorded as “* (* = 0 μM ≤ SC150 < 0.1 μM)”. `CN1CC[C@@H](Nc2cccc3c2cc(-c2noc(CNC(=O)c4cccc(N5CCCC5)c4)n2)n3CC(F)(F)F)[C@@H](F)C1` [Compound 263B, N-{[3-(4-{[(3S,4R)-3-fluoro-1-methylpiperidin-4-yl]amino}-1-(2,2,2-trifluoroethyl)-1H-indol-2-yl)-1,2,4-oxadiazol-5-yl]methyl}-3-(pyrrolidin-1-yl)benzamide]: the “Y220C SC150 (μM)” value was “* (* = 0 μM ≤ SC150 < 0.1 μM)”. For the compound `CN1CC[C@H](Nc2cccc3c2cc(-c2nnc(CNC(=O)c4cccs4)s2)n3CC(F)(F)F)[C@H](F)C1` (racemic) [Compound 30B, (+/−)-N-{[5-(4-{[(3R,4S)-3-fluoro-1-methylpiperidin-4-yl]amino}-1-(2,2,2-trifluoroethyl)-1H-indol-2-yl)-1,3,4-thiadiazol-2-yl]methyl}thiophene-2-carboxamide], the “Y220C SC150 (μM)” value was “* (* = 0 μM ≤ SC150 < 0.1 μM)”. Regarding `CN1CC[C@@H](Nc2cccc3c2cc(-c2noc(CNC(=O)c4ccn(C5CCC(F)C5)c4)n2)n3CC(F)(F)F)[C@@H](F)C1` (stereo partly drawn) [Compound 345B, N-{[3-(4-{[(3S,4R)-3-fluoro-1-methylpiperidin-4-yl]amino}-1-(2,2,2-trifluoroethyl)-1H-indol-2-yl)-1,2,4-oxadiazol-5-yl]methyl}-1-(3-fluorocyclopentyl)-1H-pyrrole-3-carboxamide], the “Y220C SC150 (μM)” value is reported as “* (* = 0 μM ≤ SC150 < 0.1 μM)”. `COCC(C)n1ccc(C(=O)NCc2nc(-c3cc4c(N[C@@H]5CCN(C(C)(C)C)C[C@@H]5F)cccc4n3CC(F)(F)F)no2)c1` (mixture of isomers) [Compound 357B, rac-N-{[3-(4-{[(3R,4S)-1-tert-butyl-3-fluoropiperidin-4-yl]amino}-1-(2,2,2-trifluoroethyl)-1H-indol-2-yl)-1,2,4-oxadiazol-5-yl]methyl}-1-(1-methoxypropan-2-yl)-1H-pyrrole-3-carboxamide]: the “Y220C SC150 (μM)” value is given as “* (* = 0 μM ≤ SC150 < 0.1 μM)”. On to `CN1CC[C@@H](Nc2cccc3c2cc(-c2noc(CNC(=O)c4cncn4C(C)(C)C)n2)n3CC(F)(F)F)[C@@H](F)C1` [Compound 270B, 1-tert-butyl-N-{[3-(4-{[(3S,4R)-3-fluoro-1-methylpiperidin-4-yl]amino}-1-(2,2,2-trifluoroethyl)-1H-indol-2-yl)-1,2,4-oxadiazol-5-yl]methyl}-1H-imidazole-5-carboxamide], for which the “Y220C SC150 (μM)” value is “* (* = 0 μM ≤ SC150 < 0.1 μM)”. Take `CCN1CCC(Nc2cccc3c2cc(-c2noc(CNC(=O)C4CC4)n2)n3CC(F)(F)F)CC1` [Compound 168B, N-[(3-{4-[(1-ethylpiperidin-4-yl)amino]-1-(2,2,2-trifluoroethyl)-1H-indol-2-yl}-1,2,4-oxadiazol-5-yl)methyl]cyclopropanecarboxamide]: the “Y220C SC150 (μM)” value is “* (* = 0 μM ≤ SC150 < 0.1 μM)”. As for `CN1CCC(Nc2cccc3c2cc(-c2ncc(CNC(=O)C4CC4)s2)n3CC(F)(F)F)CC1` [Compound 94B, N-[(2-{4-[(1-methylpiperidin-4-yl)amino]-1-(2,2,2-trifluoroethyl)-1H-indol-2-yl}-1,3-thiazol-5-yl)methyl]cyclopropanecarboxamide], the “Y220C SC150 (μM)” value is recorded as “* (* = 0 μM ≤ SC150 < 0.1 μM)”. Regarding `F[C@H]1CNCC[C@H]1Nc1cccc2c1cc(-c1noc(CNc3cn[nH]c3)n1)n2CC(F)(F)F` [Compound 203B, N-[(3S,4R)-3-fluoropiperidin-4-yl]-2-(5-{[(1H-pyrazol-4-yl)amino]methyl}-1,2,4-oxadiazol-3-yl)-1-(2,2,2-trifluoroethyl)-1H-indol-4-amine], the “Y220C SC150 (μM)” value is given as “* (* = 0 μM ≤ SC150 < 0.1 μM)”.

The assay is the same for the next values; noted with them: concentration to increase DNA binding by […], incubated at either 27° C. or 29° C. for 60 min.
`CN1CC[C@H](Nc2cccc3c2cc(-c2ccc(CNc4ccc(S(C)(=O)=O)cc4)cc2)n3CC(F)(F)F)[C@H](F)C1` [Compound 44A, N-[(3R,4S)-3-fluoro-1-methylpiperidin-4-yl]-2-(4-{[(4-methanesulfonylphenyl)amino]methyl}phenyl)-1-(2,2,2-trifluoroethyl)-1H-indol-4-amine]: the “SC150 (μM)” value was “+ (+ = 0 μM ≤ SC150 < 2 μM)”.

Take `CNCc1ccc(-c2cc3c(NC4CCS(=O)(=O)CC4)cccc3n2CC(F)(F)F)cc1` [Compound 3A, 4-[(2-{4-[(methylamino)methyl]phenyl}-1-(2,2,2-trifluoroethyl)-1H-indol-4-yl)amino]-1λ^6-thiane-1,1-dione]: the “SC150 (μM)” value is reported as “+++ (+++ = 5 μM ≤ SC150 < 10 μM)”. Regarding `CN(Cc1ccc(-c2cc3c(NC4CCS(=O)(=O)CC4)cccc3n2CC(F)(F)F)cc1)C(=O)OC(C)(C)C` [Compound 4A, tert-butyl N-[(4-{4-[(1,1-dioxo-1λ^6-thian-4-yl)amino]-1-(2,2,2-trifluoroethyl)-1H-indol-2-yl}phenyl)methyl]-N-methylcarbamate], the “SC150 (μM)” value was “+++ (+++ = 5 μM ≤ SC150 < 10 μM)”.
